Measured values as given in PMC3668458 (Journal of neuroscience research, 2011).

Molecular target: α4β2 nicotinic acetylcholine receptor (α4 subunit) (Homo sapiens, UniProt P17787+P43681)
Test: whole-cell patch clamp, Schild plot analysis of inhibition of ACh currents
Type: cell-based

α4β2 nicotinic acetylcholine receptor (α4 subunit), sequence (P43681 27-627): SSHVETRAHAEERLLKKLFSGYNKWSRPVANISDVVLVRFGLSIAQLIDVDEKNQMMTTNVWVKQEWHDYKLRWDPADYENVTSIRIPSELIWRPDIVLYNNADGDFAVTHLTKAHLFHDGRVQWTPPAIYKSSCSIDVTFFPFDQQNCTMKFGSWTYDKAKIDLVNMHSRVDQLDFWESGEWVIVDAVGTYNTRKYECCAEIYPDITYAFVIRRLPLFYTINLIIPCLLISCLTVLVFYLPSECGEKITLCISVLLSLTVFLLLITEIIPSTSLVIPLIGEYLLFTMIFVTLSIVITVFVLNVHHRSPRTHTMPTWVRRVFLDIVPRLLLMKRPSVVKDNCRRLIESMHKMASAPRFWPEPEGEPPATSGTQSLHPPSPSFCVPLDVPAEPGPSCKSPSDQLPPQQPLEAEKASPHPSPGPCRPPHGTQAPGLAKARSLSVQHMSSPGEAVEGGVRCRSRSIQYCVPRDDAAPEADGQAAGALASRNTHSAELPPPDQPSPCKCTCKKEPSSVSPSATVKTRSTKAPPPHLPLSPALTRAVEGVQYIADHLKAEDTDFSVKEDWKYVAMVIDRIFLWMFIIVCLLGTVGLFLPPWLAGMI
α4β2 nicotinic acetylcholine receptor (α4 subunit), sequence (P17787 26-502): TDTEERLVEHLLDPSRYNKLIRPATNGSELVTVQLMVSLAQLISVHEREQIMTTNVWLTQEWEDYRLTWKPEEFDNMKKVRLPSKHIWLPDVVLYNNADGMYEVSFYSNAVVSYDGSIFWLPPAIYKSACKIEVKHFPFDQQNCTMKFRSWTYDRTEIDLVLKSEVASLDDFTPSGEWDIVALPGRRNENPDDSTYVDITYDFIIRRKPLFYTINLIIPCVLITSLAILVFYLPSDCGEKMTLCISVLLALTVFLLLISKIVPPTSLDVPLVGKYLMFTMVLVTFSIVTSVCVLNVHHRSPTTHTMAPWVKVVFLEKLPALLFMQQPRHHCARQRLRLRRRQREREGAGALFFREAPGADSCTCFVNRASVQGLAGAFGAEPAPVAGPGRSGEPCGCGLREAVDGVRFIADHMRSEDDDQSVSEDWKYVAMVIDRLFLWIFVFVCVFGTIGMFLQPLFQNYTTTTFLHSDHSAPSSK

O=[N+]([O-])NC1=NCCN1Cc1ccc(Cl)nc1 [IMI, imidacloprid]
Kb: 18.2 ± 0.9 µM
